In patent US20140323500A1, “NADPH OXIDASE 4 INHIBITORS AND USE THEREOF” (GENKYOTEX SA, priority 2011, published 2014):

What was measured:
[1] = biological target: T1, human Nox4 (Homo sapiens, UniProt Q9NPH5); experiment: ROS production by membranes expressing human Nox4, cell-free Amplex Red assay; type: biochemical; details: cell-free membranes, Amplex Red; Cheng-Prusoff; average of at least three experiments in triplicate; read-out: Ki hNox4
T1 construct: expressed in transfected cells; host or cells: T-REx-293 (hNOX4 T-REx-293), tetracycline-induced; membrane fraction
T1 sequence (Q9NPH5 1-578): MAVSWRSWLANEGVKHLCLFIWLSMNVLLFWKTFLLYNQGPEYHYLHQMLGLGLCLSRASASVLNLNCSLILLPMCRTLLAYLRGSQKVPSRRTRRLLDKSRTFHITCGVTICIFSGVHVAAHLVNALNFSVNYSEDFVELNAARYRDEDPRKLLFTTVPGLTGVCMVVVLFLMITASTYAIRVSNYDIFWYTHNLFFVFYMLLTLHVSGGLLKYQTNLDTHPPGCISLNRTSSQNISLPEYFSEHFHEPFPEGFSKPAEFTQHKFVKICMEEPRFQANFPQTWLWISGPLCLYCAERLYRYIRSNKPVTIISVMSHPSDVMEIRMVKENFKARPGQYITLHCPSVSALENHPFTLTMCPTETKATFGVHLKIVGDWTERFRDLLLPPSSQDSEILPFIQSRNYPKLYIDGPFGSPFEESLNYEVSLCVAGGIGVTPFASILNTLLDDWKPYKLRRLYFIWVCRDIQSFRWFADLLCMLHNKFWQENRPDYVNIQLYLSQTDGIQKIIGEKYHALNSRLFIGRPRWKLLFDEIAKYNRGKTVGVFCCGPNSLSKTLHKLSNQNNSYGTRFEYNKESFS
T1 sequence (P13498 2-195 partner limits assumed): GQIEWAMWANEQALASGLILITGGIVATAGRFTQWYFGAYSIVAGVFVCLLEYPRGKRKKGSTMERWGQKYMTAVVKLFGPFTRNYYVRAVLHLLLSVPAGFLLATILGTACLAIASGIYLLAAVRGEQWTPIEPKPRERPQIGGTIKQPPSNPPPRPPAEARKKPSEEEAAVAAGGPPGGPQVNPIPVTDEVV
Text: (§1) The Nox4 activity of Nox4 inhibitors according to the invention may be tested for their activity in the inhibition or reduction of formation of reactive oxygen species (ROS) from oxygen in cell free assays. In order to fully characterise Nox4 inhibitors, Nox subunit-specific cell-free, membrane-based systems have been developed and specific recombinant proteins have been added to membranes heterologously over-expressing their specific iso form. Nox enzymes produce superoxide (O2.−) as primary product, however due to the high instability and reactivity of this molecule which dismutates naturally into hydrogen peroxide (H2O2), therefore, read-out techniques involving probes that do measure H2O2 were used (e.g. using Amplex Red as a probe in order to facilitate consistent and accurate measurements). The activity of the compounds is tested in the following cell free assay using the techniques described here below:
Transfected T-REx™-CHO cells (R718-07) purchased from Invitrogen and T-REx™-293 cell line expressing hNOX4 (hNOX4 T-REx™-293) (Serrander et al., 2007, Biochem. J., 406, 105-114) were cultured in […]. Both media were supplemented with 10% FBS, 2 mM glutamine, penicillin (100 U/ml) and streptomycin (100 μg/ml). Selection pressure was maintained by continuous inclusion of blasticidin (5 μg/ml), and/or G418 (0.25 mg/ml), and/or Hygromycin (0.25 mg/ml) and/or zeocin (0.025 mg/ml).
(§2) Human Nox1, Nox2, Nox4, and Nox5 expression were induced with Tetracycline (1 μg/ml) during 24 h prior to the membrane preparation Membranes from transfected cells overexpressing Nox1, Nox2, Nox4 or Nox5 were prepared as previously described in Palicz et al., 2001, J. Biol. Chem., 76, 3090-3097. After resuspension in sonication buffer (11% sucrose, 120 mM NaCl, 1 mM EGTA in PBS, pH 7.4 for Nox4- or NOX5-expressing cells) or in relax buffer (10 mM Pipes, 3 mM NaCl, 3.5 mM MgCl2, 0.1M KCl, pH 7.4), cells were broken by sonication and centrifuged (200 g, 10 min). The supernatant was layered onto a 17/40% (w/v) discontinuous sucrose gradient and centrifuged (150,000×g for 60 min). Membrane fractions were collected from the 17/40% interface and were stored at −80° C. Protein concentration was determined with the Bradford reagent.
(§3) Reactive Oxygen Species (ROS) production by membranes expressing either human Nox1, or human Nox2 or human Nox4 or human Nox5 or by xanthine/xanthine oxidase were measured using the Amplex Red (AR) method following a slightly modified version of the manufacturer's instruction manual (Invitrogen). Briefly, membranes or xanthine were incubated in PBS with Amplex Red, Horse Radish Peroxidase (HRP) and appropriated co-factors. ROS production was induced by addition of NADPH to NOX-expressing membrane or by addition of xanthine to xanthine oxidase. Non-specific signal was measured in the absence of membranes or in the absence of xanthine.
Antagonist activity of compounds was measured in the presence of increasing concentrations ranging from 1 nM to 100 μM. After an incubation of 20 min in a plate shaker and incubator (Titramax 1000, VWR) at 37° C. with weak agitation (300 rpm), ROS levels were measured for 10 min in a BMG Fluostar microplate reader with excitation and emission wavelengths of 544 nm and 590 nm respectively.
Data were analysed using Prism (GraphPad Software Inc., San Diego, Calif.). Ki values were calculated using the Cheng-Prusoff equation and represent the average of at least three individual experiments performed in triplicate (Table 1). Nox4 inhibition was compared to that measured for Simvastatin (Enzo Life Sciences, CAS Number 79902-63-9) using the method described in Example 1. Reactive Oxygen Species (ROS) production by membranes expressing human Nox4 was measured using the Amplex Red (AR).

[2] = biological target: T2, human Nox2 (Homo sapiens, UniProt P04839); experiment: ROS production by membranes expressing human Nox2, cell-free Amplex Red assay; type: biochemical; details: cell-free membranes, Amplex Red; Cheng-Prusoff; average of at least three experiments in triplicate; read-out: Ki hNox2
T2 construct: host or cells: T-REx-CHO (hNOX2 T-REx-CHO), tetracycline-induced; membrane fraction
T2 sequence (P04839 2-570 limits assumed): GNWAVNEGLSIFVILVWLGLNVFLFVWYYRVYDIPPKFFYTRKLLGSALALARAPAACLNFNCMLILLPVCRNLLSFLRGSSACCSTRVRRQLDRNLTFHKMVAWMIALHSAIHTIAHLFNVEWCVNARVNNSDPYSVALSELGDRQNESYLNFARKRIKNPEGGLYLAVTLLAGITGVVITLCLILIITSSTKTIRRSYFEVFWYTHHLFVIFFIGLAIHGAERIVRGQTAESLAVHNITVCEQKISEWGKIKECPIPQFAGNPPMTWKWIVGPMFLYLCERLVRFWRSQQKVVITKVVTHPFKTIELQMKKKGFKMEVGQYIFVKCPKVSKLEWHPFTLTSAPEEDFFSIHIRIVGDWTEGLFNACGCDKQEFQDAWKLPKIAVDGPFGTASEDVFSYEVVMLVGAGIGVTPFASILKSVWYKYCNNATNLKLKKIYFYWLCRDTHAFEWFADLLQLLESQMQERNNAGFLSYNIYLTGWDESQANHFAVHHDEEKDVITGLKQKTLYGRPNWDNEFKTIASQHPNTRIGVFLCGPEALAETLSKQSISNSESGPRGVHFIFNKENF
T2 sequence (P13498 2-195 partner limits assumed): T1 sequence (P13498 2-195 partner limits assumed)
Text: as §1
Human Nox1 (NM_007052.4), human NOX2 (NM_000397), and human NOX5 (NM_0245052244) cDNAs were cloned into the pcDNA5/TO (Invitrogen). Human p22 (NM_000101.2) was cloned into pcDNA3.1/Zeo (+) (Invitrogen), and human NOXA1 (AY255769.1) and human NOXO1 (AB097667) were cloned into the bi-cistronic pVITRO1-neo-mcs plasmid (Invivogen).
Cells were transfected by using the FuGENE 6 method. Cells stably expressing functional human Nox1 (hNOX1 T-REx™-CHO) were obtained by co-transfecting T-REx™-CHO cells with human Nox1, human p22, human NOXA1 and human NOXO1. Cells stably expressing functional human Nox2 (hNOX2 T-REx™-CHO) were obtained by co-transfecting T-REx™-CHO cells with human nox2, human p22 and human cofactors. Cells stably expressing functional human Nox5 (hNOX5 T-REx™-CHO) were obtained by transfecting T-REx™-CHO cells with human Nox5. Co-transfected cells were selected with the appropriate antibiotics for 10 days. For the selection, hygromycin and G418 were used at 2 mg/ml and zeocin at 0.1 mg/ml. For the establishment of each stably transfected cell line, a pool of antibiotic-resistant cells was generated. Cells were cloned by limiting dilution. Several clones were established and investigated for ROS production upon tetracycline-induced hNox expression using a cellular AR assay. The expression of NOXes was done with tetracycline (1 μg/ml) during 24 h prior to the assay.
as §2, §3
Antagonist activity of compounds was measured in the presence of increasing concentrations ranging from 1 nM to 100 μM. […]

Row | Ki [1] [nM] | Ki [2] [nM] | SMILES
1 | 75 | 563 | O=c1c2c(-c3ccc(Cl)cc3F)n(Cc3cccnc3)c(=O)cc2[nH]n1-c1ccccc1Cl [(11), 4-(4-chloro-2-fluorophenyl)-2-(2-chlorophenyl)-5-(pyridin-3-ylmethyl)-1H-pyrazolo[4,3-c]pyridine-3,6(2H,5H)-dione]
2 | 74 | 650 | O=c1c2c(-c3cc(Cl)ccc3F)n(Cc3cccnc3)c(=O)cc2[nH]n1-c1ccccc1Cl [(9), 4-(5-chloro-2-fluorophenyl)-2-(2-chlorophenyl)-5-(pyridin-3-ylmethyl)-1H-pyrazolo[4,3-c]pyridine-3,6(2H,5H)-dione]
3 | 85 | 720 | O=c1c2c(-c3ccc(Cl)cc3)n(Cc3cnccn3)c(=O)cc2[nH]n1-c1ccccc1Cl [(16), 2-(2-chlorophenyl)-4-(4-chlorophenyl)-5-(pyrazin-2-ylmethyl)-1H-pyrazolo[4,3-c]pyridine-3,6(2H,5H)-dione]
4 | 91 | 640 | O=c1c2c(-c3ccc(Cl)cc3F)n(Cc3ccncc3)c(=O)cc2[nH]n1-c1ccccc1Cl [(19), 4-(4-chloro-2-fluorophenyl)-2-(2-chlorophenyl)-5-(pyridin-4-ylmethyl)-1H-pyrazolo[4,3-c]pyridine-3,6(2H,5H)-dione]
5 | 73 | 750 | COc1ccccc1-n1[nH]c2cc(=O)n(Cc3cccnc3)c(-c3ccc(Cl)cc3F)c2c1=O [(8), 4-(4-chloro-2-fluorophenyl)-2-(2-methoxyphenyl)-5-(pyridin-3-ylmethyl)-1H-pyrazolo[4,3-c]pyridine-3,6(2H,5H)-dione]
6 | 100 | 2180 | O=c1c2c(-c3ccc(Cl)cc3)n(Cc3cccnc3)c(=O)cc2[nH]n1-c1ccccc1Cl [(25), 2-(2-chlorophenyl)-4-(4-chlorophenyl)-5-(pyridin-3-ylmethyl)-1H-pyrazolo[4,3-c]pyridine-3,6(2H,5H)-dione]
7 | 89 | 810 | O=c1c2c(-c3ccc(Cl)cc3)n(Cc3ccncc3)c(=O)cc2[nH]n1-c1ccccc1Cl [(18), 2-(2-chlorophenyl)-4-(4-chlorophenyl)-5-(pyridin-4-ylmethyl)-1H-pyrazolo[4,3-c]pyridine-3,6(2H,5H)-dione]
8 | 128 | 950 | O=c1c2c(-c3cc(Cl)cc(Cl)c3)n(Cc3ccncc3)c(=O)cc2[nH]n1-c1ccccc1Cl [(37), 2-(2-chlorophenyl)-4-(3,5-dichlorophenyl)-5-(pyridin-4-ylmethyl)-1H-pyrazolo[4,3-c]pyridine-3,6(2H,5H)-dione]
9 | 48 | 670 | COc1ccc(-c2c3c(=O)n(-c4ccccc4Cl)[nH]c3cc(=O)n2Cc2cnccn2)cc1 [(2), 2-(2-chlorophenyl)-4-(4-methoxyphenyl)-5-(pyrazin-2-ylmethyl)-1H-pyrazolo[4,3-c]pyridine-3,6(2H,5H)-dione]
10 | 159 | 540 | O=c1c2c(-c3cc(F)ccc3F)n(Cc3cccnc3)c(=O)cc2[nH]n1-c1ccccc1Cl [(42), 2-(2-chlorophenyl)-4-(2,5-difluorophenyl)-5-(pyridin-3-ylmethyl)-1H-pyrazolo[4,3-c]pyridine-3,6(2H,5H)-dione]
11 | 125 | 1160 | O=c1c2c(-c3ccc(Cl)cc3)n(Cc3nccs3)c(=O)cc2[nH]n1-c1ccccc1Cl [(36), 2-(2-chlorophenyl)-4-(4-chlorophenyl)-5-(1,3-thiazol-2-ylmethyl)-1H-pyrazolo[4,3-c]pyridine-3,6(2H,5H)-dione]
12 | 119 | 665 | O=c1c2c(-c3cc(F)ccc3F)n(Cc3ccncc3)c(=O)cc2[nH]n1-c1ccccc1Cl [(35), 2-(2-chlorophenyl)-4-(2,5-difluorophenyl)-5-(pyridin-4-ylmethyl)-1H-pyrazolo[4,3-c]pyridine-3,6(2H,5H)-dione]
13 | 149 | 1500 | CN(C)c1cccc(-c2c3c(=O)n(-c4ccccc4Cl)[nH]c3cc(=O)n2Cc2cccnc2)c1 [(39), 2-(2-chlorophenyl)-4-[3-(dimethylamino)phenyl]-5-(pyridin-3-ylmethyl)-1H-pyrazolo[4,3-c]pyridine-3,6(2H,5H)-dione]
